Data from US7368440B2, “Methods for the administration of amifostine and related compounds” (Medimmune Oncology, Inc., priority 2001, dated 2008).
Like-named read-outs stand apart in the source and are kept apart here.

Details: human, in vivo
Description: The reconstituted solution was drawn up in a 10 mL syringe for administration.
This solution was divided into two syringes (1.25 mL per syringe) for administration.
During the infusion, the subjects were kept in a supine position. […] Moreover, all subjects were given a standard lunch at noon, a standard dinner at 6:00 PM and a standard snack at 10:00 PM.
This formulation was administered by gently squirting the solution in the back of the subject's throat. […] All subjects were given a standard lunch at noon, a standard dinner at 6:00 PM and a standard snack at 10:00 PM.
All subjects were given a standard lunch at noon, a standard dinner at 6:00 PM and a standard snack at 10:00 PM.
Non-compartmental modelling of the data was performed.

NCCCNCCS [WR-1065, S-2-(3-Aminopropyl Amino) ethanethiol]
Relative bioavailability Ratio PO/IV (Metabolite): 0.32
Relative bioavailability Ratio SC/IV (Metabolite): 0.71
time at which WR-1065 concentration fell below 5 μM (iv): approximately 45 minutes
time at which WR-1065 concentration fell below 5 μM (sc): approximately 60 minutes
peak levels (maximum whole blood concentration) (male, iv): about 23 μM
time within which whole blood concentrations peaked and declined rapidly (male, iv): ≤ 10 min
maximum blood levels (male, sc): ~4 µM
time to maximum and sustained whole blood concentration (male, sc): 15 to 45 min
